Laboratory results taken from the NIST ThermoML archive (doi:10.1016/j.tca.2010.03.028).

Key:
[1] = xn = mol fraction of the nth substance listed; conditions: 308.15 K, 101 kPa, Liquid; for excess molar volume: Direct dilatometry; for speed of sound: Linear variable-path acoustic interferometer
[2] = excess molar enthalpy (molar enthalpy of mixing); xn = mol fraction of the nth substance listed; conditions: 308.15 K, 101 kPa, Liquid, Calvet calorimetry

C1CCOCC1 [tetrahydropyran] + C1CCCCC1
Conditions	excess molar enthalpy [kcal/mol]	excess molar volume [m3/mol]	speed of sound [m/s]
[1], x1 = 0.0648	–	9.1e-08	–
[1], x1 = 0.0785	–	–	1209
[1], x1 = 0.1372	–	1.72e-07	–
[1], x1 = 0.161	–	–	1205
[1], x1 = 0.1954	–	2.24e-07	–
[1], x1 = 0.1965	–	–	1204
[1], x1 = 0.2351	–	2.53e-07	–
[1], x1 = 0.2477	–	–	1202
[1], x1 = 0.303	–	2.9e-07	–
[1], x1 = 0.3378	–	–	1200
[1], x1 = 0.3575	–	3.1e-07	–
[1], x1 = 0.3879	–	–	1199
[1], x1 = 0.433	–	–	1199
[1], x1 = 0.4351	–	3.23e-07	–
[1], x1 = 0.4712	–	–	1199
[1], x1 = 0.4911	–	3.22e-07	–
[1], x1 = 0.5344	–	–	1200
[1], x1 = 0.5412	–	3.14e-07	–
[1], x1 = 0.5988	–	–	1202
[1], x1 = 0.6421	–	–	1203
[1], x1 = 0.6536	–	2.76e-07	–
[1], x1 = 0.721	–	2.4e-07	–
[1], x1 = 0.7533	–	–	1209
[1], x1 = 0.7952	–	1.9e-07	–
[1], x1 = 0.8066	–	–	1212
[1], x1 = 0.8827	–	1.17e-07	–
[1], x1 = 0.9325	–	7e-08	–
[2], x1 = 0.0634	0.0319	–	–
[2], x1 = 0.1146	0.0546	–	–
[2], x1 = 0.2073	0.088	–	–
[2], x1 = 0.2734	0.106	–	–
[2], x1 = 0.3379	0.118	–	–
[2], x1 = 0.3805	0.123	–	–
[2], x1 = 0.4339	0.127	–	–
[2], x1 = 0.5322	0.126	–	–
[2], x1 = 0.6045	0.118	–	–
[2], x1 = 0.6848	0.103	–	–
[2], x1 = 0.7529	0.0864	–	–
[2], x1 = 0.7939	0.0744	–	–
[2], x1 = 0.8564	0.054	–	–
[2], x1 = 0.8976	0.0394	–	–

C1CCOCC1 [tetrahydropyran] + CCCCCC
Conditions	excess molar enthalpy [kcal/mol]	excess molar volume [m3/mol]	speed of sound [m/s]
[1], x1 = 0.0328	–	1.4e-08	–
[1], x1 = 0.0459	–	1.9e-08	–
[1], x1 = 0.0694	–	2.7e-08	–
[1], x1 = 0.0785	–	3e-08	–
[1], x1 = 0.0981	–	–	1054
[1], x1 = 0.1294	–	4.4e-08	–
[1], x1 = 0.1561	–	4.9e-08	–
[1], x1 = 0.1578	–	–	1067
[1], x1 = 0.1965	–	–	1075
[1], x1 = 0.2753	–	6.4e-08	–
[1], x1 = 0.2955	–	–	1093
[1], x1 = 0.3262	–	6.6e-08	–
[1], x1 = 0.3313	–	–	1099
[1], x1 = 0.3955	–	–	1110
[1], x1 = 0.4469	–	–	1118
[1], x1 = 0.4629	–	6.2e-08	–
[1], x1 = 0.4947	–	–	1126
[1], x1 = 0.515	–	5.8e-08	–
[1], x1 = 0.5211	–	–	1130
[1], x1 = 0.5955	–	–	1143
[1], x1 = 0.6692	–	4.2e-08	–
[1], x1 = 0.6955	–	–	1161
[1], x1 = 0.7311	–	–	1168
[1], x1 = 0.7837	–	2.8e-08	–
[1], x1 = 0.7965	–	–	1181
[1], x1 = 0.8461	–	2e-08	–
[1], x1 = 0.8992	–	–	1203
[1], x1 = 0.9239	–	1e-08	–
[2], x1 = 0.0581	0.0246	–	–
[2], x1 = 0.1073	0.044	–	–
[2], x1 = 0.1962	0.075	–	–
[2], x1 = 0.2274	0.0844	–	–
[2], x1 = 0.3276	0.109	–	–
[2], x1 = 0.3888	0.12	–	–
[2], x1 = 0.4395	0.126	–	–
[2], x1 = 0.4968	0.13	–	–
[2], x1 = 0.522	0.131	–	–
[2], x1 = 0.5931	0.129	–	–
[2], x1 = 0.6634	0.121	–	–
[2], x1 = 0.7514	0.103	–	–
[2], x1 = 0.8124	0.0849	–	–
[2], x1 = 0.8997	0.0509	–	–

C1CCOCC1 [tetrahydropyran] + CCCCCCC
Conditions	excess molar enthalpy [kcal/mol]	excess molar volume [m3/mol]	speed of sound [m/s]
[1], x1 = 0.0543	–	5.7e-08	–
[1], x1 = 0.0833	–	–	1100
[1], x1 = 0.113	–	1.11e-07	–
[1], x1 = 0.1323	–	–	1107
[1], x1 = 0.1977	–	–	1117
[1], x1 = 0.2031	–	1.77e-07	–
[1], x1 = 0.2396	–	–	1127
[1], x1 = 0.2613	–	2.1e-07	–
[1], x1 = 0.2998	–	2.28e-07	–
[1], x1 = 0.3245	–	–	1137
[1], x1 = 0.3475	–	2.45e-07	–
[1], x1 = 0.3812	–	–	1145
[1], x1 = 0.3991	–	2.58e-07	–
[1], x1 = 0.4396	–	–	1154
[1], x1 = 0.4441	–	2.65e-07	–
[1], x1 = 0.4964	–	2.68e-07	–
[1], x1 = 0.5033	–	–	1163
[1], x1 = 0.5601	–	2.64e-07	–
[1], x1 = 0.5684	–	–	1172
[1], x1 = 0.6107	–	2.55e-07	–
[1], x1 = 0.6161	–	–	1178
[1], x1 = 0.688	–	–	1187
[1], x1 = 0.7123	–	2.2e-07	–
[1], x1 = 0.7646	–	–	1197
[1], x1 = 0.8011	–	1.72e-07	–
[1], x1 = 0.8223	–	–	1204
[1], x1 = 0.8999	–	9.8e-08	–
[1], x1 = 0.9044	–	–	1213
[2], x1 = 0.0842	0.0387	–	–
[2], x1 = 0.1777	0.0796	–	–
[2], x1 = 0.2324	0.101	–	–
[2], x1 = 0.3339	0.132	–	–
[2], x1 = 0.3741	0.141	–	–
[2], x1 = 0.4413	0.15	–	–
[2], x1 = 0.5008	0.153	–	–
[2], x1 = 0.5989	0.147	–	–
[2], x1 = 0.6821	0.13	–	–
[2], x1 = 0.7124	0.122	–	–
[2], x1 = 0.7654	0.104	–	–
[2], x1 = 0.8325	0.0779	–	–
[2], x1 = 0.8778	0.0581	–	–
[2], x1 = 0.9213	0.0379	–	–
